# In US11034672B1, “Tyrosine kinase inhibitor compositions, methods of making and methods of use” (Black Diamond Therapeutics, Inc., priority 2018, dated 2021):
# Columns and labels:
# Type in all cases: cell-based
# EGFR V3 [1] = target: T1, EGFR V3 (Homo sapiens, UniProt P00533, DELINS30-297G); assay: BaF3 cell proliferation assay, EGFR V3 (Table A); details: potency code, 3 days, CellTiterGlo, read-out: EGFR V3 (Activity for Inhibiting EGFR)
# T1 construct: expressed in transfected cells; host or cells: BaF3 (murine pro-B), retroviral pMXs-IRES-Blasticidin
# T1 sequence (P00533 with tags, fused parts or gaps DELINS30-297G): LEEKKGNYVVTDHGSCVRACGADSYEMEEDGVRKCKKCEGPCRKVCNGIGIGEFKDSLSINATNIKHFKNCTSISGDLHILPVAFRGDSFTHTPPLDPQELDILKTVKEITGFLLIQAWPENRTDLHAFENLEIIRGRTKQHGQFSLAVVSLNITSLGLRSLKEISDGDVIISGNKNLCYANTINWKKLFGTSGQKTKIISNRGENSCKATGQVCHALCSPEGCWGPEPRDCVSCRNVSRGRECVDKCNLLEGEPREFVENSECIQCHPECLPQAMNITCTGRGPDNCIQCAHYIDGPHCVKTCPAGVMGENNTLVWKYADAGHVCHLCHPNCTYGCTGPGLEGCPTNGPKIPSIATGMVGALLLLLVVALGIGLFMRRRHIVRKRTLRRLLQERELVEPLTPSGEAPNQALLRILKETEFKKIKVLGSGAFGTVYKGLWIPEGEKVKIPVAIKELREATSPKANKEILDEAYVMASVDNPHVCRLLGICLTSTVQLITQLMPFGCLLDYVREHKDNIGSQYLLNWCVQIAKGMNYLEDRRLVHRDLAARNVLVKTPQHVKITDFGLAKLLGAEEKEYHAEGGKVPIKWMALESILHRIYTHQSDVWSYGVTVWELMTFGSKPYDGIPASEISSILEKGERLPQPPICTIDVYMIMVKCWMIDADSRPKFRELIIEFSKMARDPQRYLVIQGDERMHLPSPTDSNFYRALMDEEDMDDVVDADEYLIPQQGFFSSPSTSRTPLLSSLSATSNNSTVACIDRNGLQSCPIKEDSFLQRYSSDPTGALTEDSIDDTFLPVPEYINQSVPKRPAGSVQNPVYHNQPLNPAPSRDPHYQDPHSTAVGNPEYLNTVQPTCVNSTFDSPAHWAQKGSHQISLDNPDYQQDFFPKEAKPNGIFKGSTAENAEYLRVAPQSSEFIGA
# Outline: (§1)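 EC50 values come from proliferation of IL-3-independent BaF3 lines. These lines were made by two spin infections with retrovirus encoding each mutant, plus polybrene (8 μg/ml). They then underwent one week of 10 μg/ml blasticidin selection and were removed from IL-3.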
# HER2 YVMA [2] = target: T2, HER2 YVMA (Homo sapiens, UniProt P04626, INS775YVMA); assay: Activity for inhibiting HER2 (Table B), HER2 YVMA; details: read-out: HER2 YVMA, potency code (IC50)
# T2 construct: expressed in transfected cells; host or cells: BaF3 (murine pro-B)
# T2 sequence (P04626 with tags, fused parts or gaps INS775YVMA): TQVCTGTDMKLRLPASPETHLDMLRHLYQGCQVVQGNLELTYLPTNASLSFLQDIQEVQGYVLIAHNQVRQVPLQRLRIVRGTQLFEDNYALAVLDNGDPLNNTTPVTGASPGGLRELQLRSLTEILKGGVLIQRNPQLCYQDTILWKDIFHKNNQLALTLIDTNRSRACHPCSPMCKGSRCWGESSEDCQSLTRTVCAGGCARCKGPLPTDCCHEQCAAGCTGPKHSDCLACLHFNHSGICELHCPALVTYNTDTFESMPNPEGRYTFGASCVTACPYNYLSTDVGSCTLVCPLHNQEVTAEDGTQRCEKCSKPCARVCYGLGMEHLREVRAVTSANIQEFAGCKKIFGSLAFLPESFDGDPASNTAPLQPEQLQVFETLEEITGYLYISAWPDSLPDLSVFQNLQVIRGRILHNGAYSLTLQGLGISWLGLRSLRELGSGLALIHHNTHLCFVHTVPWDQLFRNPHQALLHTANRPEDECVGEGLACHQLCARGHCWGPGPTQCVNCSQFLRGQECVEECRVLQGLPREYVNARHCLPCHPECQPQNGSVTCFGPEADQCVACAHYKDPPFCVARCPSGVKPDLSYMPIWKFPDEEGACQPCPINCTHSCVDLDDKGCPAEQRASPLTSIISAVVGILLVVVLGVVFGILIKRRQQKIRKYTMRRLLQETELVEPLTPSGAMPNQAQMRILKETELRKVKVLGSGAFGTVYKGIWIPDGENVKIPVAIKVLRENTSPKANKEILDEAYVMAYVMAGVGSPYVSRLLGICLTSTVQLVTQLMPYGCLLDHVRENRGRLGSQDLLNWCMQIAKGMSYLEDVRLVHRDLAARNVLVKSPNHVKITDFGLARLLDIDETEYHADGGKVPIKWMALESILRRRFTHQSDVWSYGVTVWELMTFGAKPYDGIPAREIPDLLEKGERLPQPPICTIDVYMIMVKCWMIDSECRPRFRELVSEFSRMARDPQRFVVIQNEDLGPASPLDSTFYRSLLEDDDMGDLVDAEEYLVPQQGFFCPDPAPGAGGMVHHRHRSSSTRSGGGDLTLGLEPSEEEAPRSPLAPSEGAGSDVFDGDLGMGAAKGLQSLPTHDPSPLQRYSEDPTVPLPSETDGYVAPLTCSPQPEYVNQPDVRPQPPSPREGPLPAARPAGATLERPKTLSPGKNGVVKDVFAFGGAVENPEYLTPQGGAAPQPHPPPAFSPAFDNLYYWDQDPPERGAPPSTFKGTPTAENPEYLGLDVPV
# Procedure: (§2) EC50 values were determined with the same application.
# HER2 S310F [3] = target: T3, HER2 S310F (Homo sapiens, UniProt P04626, S310F); assay: Activity for inhibiting HER2 (Table B), HER2 S310F; details: read-out: HER2 S310F, potency code (IC50)
# T3 construct: expressed in transfected cells; host or cells: BaF3 (murine pro-B)
# T3 sequence (P04626 23-1255 S310F): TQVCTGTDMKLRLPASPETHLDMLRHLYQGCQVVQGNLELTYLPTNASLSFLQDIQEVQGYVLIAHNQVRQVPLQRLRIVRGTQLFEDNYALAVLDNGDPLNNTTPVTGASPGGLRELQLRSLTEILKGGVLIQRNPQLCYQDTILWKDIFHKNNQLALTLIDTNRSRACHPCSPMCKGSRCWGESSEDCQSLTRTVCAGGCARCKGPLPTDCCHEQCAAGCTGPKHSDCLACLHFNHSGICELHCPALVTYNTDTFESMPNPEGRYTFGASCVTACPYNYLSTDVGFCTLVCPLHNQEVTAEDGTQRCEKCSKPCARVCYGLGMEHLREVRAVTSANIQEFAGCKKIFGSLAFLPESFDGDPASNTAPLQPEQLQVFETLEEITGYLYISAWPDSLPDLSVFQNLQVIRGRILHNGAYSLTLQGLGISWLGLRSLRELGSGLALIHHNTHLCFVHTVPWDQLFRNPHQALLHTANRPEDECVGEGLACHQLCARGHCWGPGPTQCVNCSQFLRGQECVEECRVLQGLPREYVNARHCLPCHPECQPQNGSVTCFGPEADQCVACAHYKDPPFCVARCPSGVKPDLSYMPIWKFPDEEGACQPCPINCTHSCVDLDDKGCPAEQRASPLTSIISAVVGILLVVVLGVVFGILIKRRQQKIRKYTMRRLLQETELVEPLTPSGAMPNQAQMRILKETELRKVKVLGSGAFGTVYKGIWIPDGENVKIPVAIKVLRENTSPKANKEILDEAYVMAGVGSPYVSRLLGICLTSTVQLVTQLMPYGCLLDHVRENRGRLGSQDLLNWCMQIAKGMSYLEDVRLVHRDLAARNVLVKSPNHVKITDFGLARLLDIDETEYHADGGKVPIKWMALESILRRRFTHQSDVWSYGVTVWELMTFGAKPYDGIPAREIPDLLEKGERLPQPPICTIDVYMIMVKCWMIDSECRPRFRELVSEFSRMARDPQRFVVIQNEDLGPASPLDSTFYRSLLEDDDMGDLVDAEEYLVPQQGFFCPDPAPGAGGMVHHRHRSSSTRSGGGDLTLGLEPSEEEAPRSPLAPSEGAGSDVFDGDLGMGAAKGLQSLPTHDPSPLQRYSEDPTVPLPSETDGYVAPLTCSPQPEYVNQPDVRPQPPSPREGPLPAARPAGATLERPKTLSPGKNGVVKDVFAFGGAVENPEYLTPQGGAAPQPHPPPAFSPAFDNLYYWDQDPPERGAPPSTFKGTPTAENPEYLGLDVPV
# Procedure: as §2
# EGFR WT [4] = target: T4, EGFR WT (Homo sapiens, UniProt P00533); assay: Activity for inhibiting EGFR (Table A), EGFR WT; details: read-out: EGFR WT, potency code (IC50)
# T4 sequence (P00533 25-1210 N540K): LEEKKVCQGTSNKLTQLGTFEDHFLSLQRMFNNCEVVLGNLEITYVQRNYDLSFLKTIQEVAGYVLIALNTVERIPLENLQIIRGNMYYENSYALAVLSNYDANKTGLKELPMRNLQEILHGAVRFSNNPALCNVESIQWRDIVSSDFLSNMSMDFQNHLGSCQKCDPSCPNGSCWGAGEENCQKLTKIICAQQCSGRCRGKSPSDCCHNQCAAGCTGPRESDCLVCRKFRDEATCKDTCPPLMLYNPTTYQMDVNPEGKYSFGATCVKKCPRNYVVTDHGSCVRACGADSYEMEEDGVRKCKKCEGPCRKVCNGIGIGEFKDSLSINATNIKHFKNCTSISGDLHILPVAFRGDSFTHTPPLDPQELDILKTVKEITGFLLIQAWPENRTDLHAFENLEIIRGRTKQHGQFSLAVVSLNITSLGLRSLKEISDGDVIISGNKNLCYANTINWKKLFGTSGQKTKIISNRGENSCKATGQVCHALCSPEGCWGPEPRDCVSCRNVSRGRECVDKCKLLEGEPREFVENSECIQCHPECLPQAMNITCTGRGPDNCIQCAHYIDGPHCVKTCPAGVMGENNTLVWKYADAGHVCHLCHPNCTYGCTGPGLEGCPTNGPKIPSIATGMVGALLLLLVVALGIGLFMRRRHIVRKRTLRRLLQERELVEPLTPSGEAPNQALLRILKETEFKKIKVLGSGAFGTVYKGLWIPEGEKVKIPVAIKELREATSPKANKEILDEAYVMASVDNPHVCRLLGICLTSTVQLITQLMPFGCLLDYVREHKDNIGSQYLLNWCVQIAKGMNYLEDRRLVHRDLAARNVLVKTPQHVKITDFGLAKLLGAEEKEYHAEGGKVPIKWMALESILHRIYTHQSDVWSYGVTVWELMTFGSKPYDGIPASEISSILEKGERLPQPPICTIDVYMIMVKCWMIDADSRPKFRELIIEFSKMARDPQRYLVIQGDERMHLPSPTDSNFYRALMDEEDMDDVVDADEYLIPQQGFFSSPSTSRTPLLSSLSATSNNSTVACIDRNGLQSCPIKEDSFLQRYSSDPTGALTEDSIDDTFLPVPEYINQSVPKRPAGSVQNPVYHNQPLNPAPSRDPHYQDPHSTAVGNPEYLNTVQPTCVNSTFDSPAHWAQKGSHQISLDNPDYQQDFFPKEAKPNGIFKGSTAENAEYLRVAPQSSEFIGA
# HER2 S310F [5] = target: T3, HER2 S310F; assay: BaF3 cell proliferation assay, HER2 S310F (Table B); details: potency code, 3 days, CellTiterGlo, read-out: HER2 S310F (Activity for Inhibiting HER2)
# EGFR WT [6] = target: T4, EGFR WT; assay: BaF3 cell proliferation assay, EGFR WT (Table A); details: potency code, 3 days, CellTiterGlo, read-out: EGFR WT (Activity for Inhibiting EGFR)
# Outline: as §1
# HER2 YVMA [7] = target: T2, HER2 YVMA; assay: BaF3 cell proliferation assay, HER2 YVMA (Table B); details: potency code, 3 days, CellTiterGlo, read-out: HER2 YVMA (Activity for Inhibiting HER2)
# EGFR V3 [8] = target: T1, EGFR V3; assay: Activity for inhibiting EGFR (Table A), EGFR V3 (EGFR-Viii); details: read-out: EGFR V3, potency code (IC50)
SMILES,IC50 (EGFR V3 [1]),IC50 (HER2 YVMA [2]),IC50 (HER2 S310F [3]),IC50 (EGFR WT [4]),IC50 (HER2 S310F [5]),IC50 (EGFR WT [6]),IC50 (HER2 YVMA [7]),IC50 (EGFR V3 [8])
"COC/C=C/C(=O)Nc1cc2c(Nc3ccc(OCc4ccccn4)c(Cl)c3)ncnc2cc1OCCN1CCOCC1 [compound 112, (E)-N-(4-((3-chloro-4-(pyridin-2-ylmethoxy)phenyl)amino)-7-(2-morpholinoethoxy)quinazolin-6-yl)-4-methoxybut-2-enamide]",100 to 200 nM,> 1000 nM,300 to 500 nM,300 to 500 nM,300 to 500 nM,300 to 500 nM,> 1000 nM,100 to 200 nM
"C=CC(=O)Nc1cc2c(Nc3ccc(Oc4ccccc4)c(C)c3)ncnc2cc1C#C[C@@H]1[C@H]2CN(C)C[C@@H]12 [compound 117, N-(7-(((1R,5S,6s)-3-methyl-3-azabicyclo[3.1.0]hexan-6-yl)ethynyl)-4-((3-methyl-4-phenoxyphenyl)amino)quinazolin-6-yl)acrylamide]",100 to 200 nM,100 to 200 nM,50 to 100 nM,500 to 1000 nM,50 to 100 nM,500 to 1000 nM,100 to 200 nM,100 to 200 nM
"C=CC(=O)Nc1cc2c(Nc3ccc(OCc4ccccn4)c(Cl)c3)ncnc2cc1OCCN1CC2(CN(C)C2)C1 [compound 119, N-(4-((3-chloro-4-(pyridin-2-ylmethoxy)phenyl)amino)-7-(2-(6-methyl-2,6-diazaspiro[3.3]heptan-2-yl)ethoxy)quinazolin-6-yl)acrylamide]",50 to 100 nM,100 to 200 nM,50 to 100 nM,300 to 500 nM,50 to 100 nM,300 to 500 nM,100 to 200 nM,50 to 100 nM
C=CC(=O)Nc1cc2c(Nc3ccc(CC(=O)c4ccccn4)c(Cl)c3)ncnc2cc1O[C@@H]1CCN(C)C1 [compound 121],100 to 200 nM,300 to 500 nM,30 to 50 nM,> 1000 nM,30 to 50 nM,> 1000 nM,300 to 500 nM,100 to 200 nM
"C=CC(=O)Nc1cc2c(Nc3ccc(OCc4ccccn4)c(Cl)c3)ncnc2cc1OCC12CCC(CC1)N2C [compound 122, N-(4-((3-chloro-4-(pyridin-2-ylmethoxy)phenyl)amino)-7-((7-methyl-7-azabicyclo[2.2.1]heptan-1-yl)methoxy)quinazolin-6-yl)acrylamide]",50 to 100 nM,500 to 1000 nM,100 to 200 nM,500 to 1000 nM,100 to 200 nM,500 to 1000 nM,500 to 1000 nM,50 to 100 nM
C=CC(=O)Nc1cc2c(Nc3ccc(OCc4ccccn4)c(Cl)c3)ncnc2cc1OCCN1CCS(=O)(=O)CC1 [compound 125],100 to 200 nM,> 1000 nM,100 to 200 nM,500 to 1000 nM,100 to 200 nM,500 to 1000 nM,> 1000 nM,100 to 200 nM
C=CC(=O)Nc1cc2c(Nc3ccc(Oc4ccc(Cl)c(F)c4)cc3)ncnc2cc1OCCN1CCOCC1 [compound 127],50 to 100 nM,> 1000 nM,300 to 500 nM,500 to 1000 nM,300 to 500 nM,500 to 1000 nM,> 1000 nM,50 to 100 nM

# More lines, now with the values ahead:
IC50 (EGFR V3 [1]),IC50 (HER2 YVMA [2]),IC50 (HER2 S310F [3]),IC50 (EGFR WT [4]),IC50 (HER2 S310F [5]),IC50 (EGFR WT [6]),IC50 (HER2 YVMA [7]),IC50 (EGFR V3 [8]),SMILES
50 to 100 nM,100 to 200 nM,30 to 50 nM,500 to 1000 nM,30 to 50 nM,500 to 1000 nM,100 to 200 nM,50 to 100 nM,"C=CC(=O)Nc1cc2c(Nc3ccc(OCc4ccccn4)c(Cl)c3)ncnc2cc1C#C[C@@H]1[C@H]2CN(C3COC3)C[C@@H]12 [compound 113, N-(4-((3-chloro-4-(pyridin-2-ylmethoxy)phenyl)amino)-7-(((1R,5S,6s)-3-(oxetan-3-yl)-3-azabicyclo[3.1.0]hexan-6-yl)ethynyl)quinazolin-6-yl)acrylamide]"
30 to 50 nM,100 to 200 nM,30 to 50 nM,300 to 500 nM,30 to 50 nM,300 to 500 nM,100 to 200 nM,30 to 50 nM,"C=CC(=O)Nc1cc2c(Nc3ccc(OCc4ccccn4)c(Cl)c3)ncnc2cc1OCCN1CCC(OC)CC1 [compound 114, N-(4-((3-chloro-4-(pyridin-2-ylmethoxy)phenyl)amino)-7-(2-(4-methoxypiperidin-1-yl)ethoxy)quinazolin-6-yl)acrylamide]"
30 to 50 nM,50 to 100 nM,30 to 50 nM,200 to 300 nM,30 to 50 nM,200 to 300 nM,50 to 100 nM,30 to 50 nM,C=CC(=O)Nc1cc2c(Nc3ccc(OCc4ccccn4)c(Cl)c3)ncnc2cc1OCCN1CC2(CCN2C)C1 [compound 115]
30 to 50 nM,200 to 300 nM,30 to 50 nM,500 to 1000 nM,30 to 50 nM,500 to 1000 nM,200 to 300 nM,30 to 50 nM,"C=CC(=O)Nc1cc2c(Nc3ccc(OCc4ccccn4)c(Cl)c3)ncnc2cc1OCC1CCN1C (stereo not drawn) [compound 116, N-(4-((3-chloro-4-(pyridin-2-ylmethoxy)phenyl)amino)-7-((1-methylazetidin-2-yl)methoxy)quinazolin-6-yl)acrylamide]"
30 to 50 nM,50 to 100 nM,10 to 20 nM,> 1000 nM,10 to 20 nM,> 1000 nM,50 to 100 nM,30 to 50 nM,"C=CC(=O)Nc1cc2c(Nc3ccc(OCc4ccccn4)c(Cl)c3)ncnc2cc1OCCC1COCCN1C (stereo not drawn) [compound 120, N-(4-((3-chloro-4-(pyridin-2-ylmethoxy)phenyl)amino)-7-(2-(4-methylmorpholin-3-yl)ethoxy)quinazolin-6-yl)acrylamide]"
30 to 50 nM,100 to 200 nM,30 to 50 nM,200 to 300 nM,30 to 50 nM,200 to 300 nM,100 to 200 nM,30 to 50 nM,"C=CC(=O)Nc1cc2c(Nc3ccc(OCc4ccccn4)c(Cl)c3)ncnc2cc1OCC1CN(C)C1 [compound 123, N-(4-((3-chloro-4-(pyridin-2-ylmethoxy)phenyl)amino)-7-((1-methylazetidin-3-yl)methoxy)quinazolin-6-yl) Acrylamide]"
30 to 50 nM,100 to 200 nM,30 to 50 nM,500 to 1000 nM,30 to 50 nM,500 to 1000 nM,100 to 200 nM,30 to 50 nM,"C=CC(=O)Nc1cc2c(Nc3ccc(OCc4ccccn4)c(Cl)c3)ncnc2cc1C#CC1CC2(C1)CN(C)C2 [compound 124, N-(4-((3-chloro-4-(pyridin-2-ylmethoxy)phenyl)amino)-7-((2-methyl-2-azaspiro[3.3]heptan-6-yl)ethynyl)quinazolin-6-yl)acrylamide]"
30 to 50 nM,50 to 100 nM,30 to 50 nM,300 to 500 nM,30 to 50 nM,300 to 500 nM,50 to 100 nM,30 to 50 nM,"C=CC(=O)Nc1cc2c(Nc3ccc(OCc4ccccn4)c(Cl)c3)ncnc2cc1C#CC12CCN(CC1)CC2 [compound 126, N-(4-((3-chloro-4-(pyridin-2-ylmethoxy)phenyl)amino)-7-(quinuclidin-4-ylethynyl)quinazolin-6-yl)acrylamide]"
